Reference: paper PMC6438538, “Targeting ferroptosis: A novel therapeutic strategy for the treatment of mitochondrial disease-related epilepsy” (PLoS ONE, 2019)

Target: T1, 15-lipoxygenase-1 (15-LO) (Homo sapiens, UniProt P16050)
T1 construct: gene ALOX15; 6xHis-tagged human 15-LO
T1 sequence (P16050 2-662): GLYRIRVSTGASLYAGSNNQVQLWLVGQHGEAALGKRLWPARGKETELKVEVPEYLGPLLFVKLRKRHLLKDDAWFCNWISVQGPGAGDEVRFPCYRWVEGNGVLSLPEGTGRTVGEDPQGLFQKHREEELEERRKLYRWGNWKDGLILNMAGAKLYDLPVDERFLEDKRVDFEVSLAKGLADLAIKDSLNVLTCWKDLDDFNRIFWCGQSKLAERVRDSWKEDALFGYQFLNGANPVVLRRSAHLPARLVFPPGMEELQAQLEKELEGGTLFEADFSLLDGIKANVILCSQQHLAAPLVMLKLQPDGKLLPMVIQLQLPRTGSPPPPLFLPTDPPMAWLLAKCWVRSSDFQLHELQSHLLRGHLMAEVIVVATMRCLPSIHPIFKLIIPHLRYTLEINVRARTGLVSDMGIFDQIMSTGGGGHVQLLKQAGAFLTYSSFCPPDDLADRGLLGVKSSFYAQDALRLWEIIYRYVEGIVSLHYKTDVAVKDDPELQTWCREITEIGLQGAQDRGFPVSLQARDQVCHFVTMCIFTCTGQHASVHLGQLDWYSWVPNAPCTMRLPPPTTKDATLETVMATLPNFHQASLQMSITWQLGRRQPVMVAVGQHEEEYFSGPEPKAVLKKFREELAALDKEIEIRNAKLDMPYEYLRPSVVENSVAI
Assay: ferrous oxidation-xylenol orange (FOX) assay with purified human 15-LO and arachidonic acid
Format: biochemical

Compound: CC(C)=CCC/C(C)=C/CC/C(C)=C/CC[C@@](C)(O)CCc1c(C)c(O)c(C)c(C)c1O [EPI-743-HQ, EPI-743 hydroquinone]
- IC50: 4.4 µM
